Measurements: ChEMBL document CHEMBL5131534, “Identification of 2-Pyridinylindole-Based Dual Antagonists of Toll-like Receptors 7 and 8 (TLR7/8)” (ACS Med Chem Lett, 2022)

How the values were obtained:
Toll-like receptor 7 = target: T1, Toll-like receptor 7 (Homo sapiens, UniProt Q9NYK1); test: Antagonist activity at gardiquimod stimulated TRL7 in human PBMC cells assessed as inhibition of IL-6 production by ELISA analysis; format: cell-based
T1 sequence (Q9NYK1 whole entry): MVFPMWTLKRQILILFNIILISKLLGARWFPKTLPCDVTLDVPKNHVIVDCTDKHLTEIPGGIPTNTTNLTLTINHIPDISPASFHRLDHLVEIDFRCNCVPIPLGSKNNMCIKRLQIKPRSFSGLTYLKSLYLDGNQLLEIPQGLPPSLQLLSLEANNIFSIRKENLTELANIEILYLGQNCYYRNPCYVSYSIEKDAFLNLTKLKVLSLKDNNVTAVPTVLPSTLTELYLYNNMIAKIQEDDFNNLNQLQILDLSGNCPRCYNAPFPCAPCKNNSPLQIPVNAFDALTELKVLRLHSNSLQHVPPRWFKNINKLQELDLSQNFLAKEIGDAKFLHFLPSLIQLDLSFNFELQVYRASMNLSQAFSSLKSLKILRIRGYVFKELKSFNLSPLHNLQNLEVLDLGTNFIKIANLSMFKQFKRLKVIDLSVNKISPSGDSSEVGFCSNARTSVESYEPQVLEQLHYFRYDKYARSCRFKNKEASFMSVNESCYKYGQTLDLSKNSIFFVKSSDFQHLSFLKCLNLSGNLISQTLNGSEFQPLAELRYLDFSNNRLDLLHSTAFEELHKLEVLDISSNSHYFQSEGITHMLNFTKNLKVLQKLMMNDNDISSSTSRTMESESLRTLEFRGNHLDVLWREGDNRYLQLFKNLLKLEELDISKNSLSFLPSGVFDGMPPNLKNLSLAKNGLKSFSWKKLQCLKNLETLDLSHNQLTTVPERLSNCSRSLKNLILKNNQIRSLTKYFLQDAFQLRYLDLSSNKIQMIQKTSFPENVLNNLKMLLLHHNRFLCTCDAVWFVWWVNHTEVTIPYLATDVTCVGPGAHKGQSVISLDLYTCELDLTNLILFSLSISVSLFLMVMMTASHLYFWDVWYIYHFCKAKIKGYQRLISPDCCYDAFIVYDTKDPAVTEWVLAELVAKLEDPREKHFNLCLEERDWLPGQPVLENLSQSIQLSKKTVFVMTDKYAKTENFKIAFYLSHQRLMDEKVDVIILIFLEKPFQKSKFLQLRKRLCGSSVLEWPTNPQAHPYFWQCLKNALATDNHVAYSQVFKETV

Mus musculus [1] = test: Anti-inflammatory activity against MRL/Ipr Systemic lupus erythematosus mouse model assessed as inhibition of anti-dsDNA Ab titer at 1 mg/kg, po administered for 8 weeks and measured 24 hrs post final dose relative to control; format: functional; parameters: scale not given: the % may be the effect or the level left; conditions: time 1368 hrs
[2] = Toxicity in MRL/Ipr Systemic lupus erythematosus mouse model assessed as drug tolerability at 0.1 to 20 mg/kg, po administered for 8 weeks and measured 24 hrs post final dose; format: organism-based; conditions: in vivo, 1368 h, dose 0.1-20 mg/kg
Mus musculus [3] = test: Anti-inflammatory activity against MRL/Ipr Systemic lupus erythematosus mouse model assessed as inhibition of anti-Sm/RNP Ab titer at 0.1 mg/kg, po administered for 8 weeks and measured 24 hrs post final dose relative to control; format: functional; parameters: scale not given: the % may be the effect or the level left; conditions: time 1368 hrs
[4] = Drug concentration in mouse blood at 15 mg/kg, po measured at 24 hrs; format: ADME, organism-based; conditions: read-out: Ct

Cc1cc(-c2[nH]c3ccc(C4CCNCC4)cc3c2C(C)C)cc(C)n1
IC50 (Toll-like receptor 7): 1 nM
Activity (Mus musculus [1]): 14%
Activity [2]: Non-Toxic
Activity (Mus musculus [3]): 27%
concentration at 24 h [4]: 22 nM
